Source: patent publication US20240217983A1, “GPR119 AGONISTS” (Kallyope, Inc., priority 2021, published 2024)
Where a name gives a salt, the structure may show the parent alone.

Target: T1, human GPR119 (hGPR119) (Homo sapiens, UniProt Q8TDV5)
T1 construct: expressed in transfected cells
T1 sequence (Q8TDV5 1-335): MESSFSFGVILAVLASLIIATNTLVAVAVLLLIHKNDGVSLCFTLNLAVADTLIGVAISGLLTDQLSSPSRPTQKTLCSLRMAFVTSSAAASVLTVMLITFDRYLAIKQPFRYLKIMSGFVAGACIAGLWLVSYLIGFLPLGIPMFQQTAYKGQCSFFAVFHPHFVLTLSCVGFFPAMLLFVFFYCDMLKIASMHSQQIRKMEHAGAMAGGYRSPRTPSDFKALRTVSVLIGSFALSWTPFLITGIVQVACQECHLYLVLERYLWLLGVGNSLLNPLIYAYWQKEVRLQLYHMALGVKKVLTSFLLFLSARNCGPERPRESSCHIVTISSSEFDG
Assay: cAMP accumulation assay (Cisbio cAMP Gs dynamic HTRF kit) in CHO-K1 cells stably expressing human GPR119
Format: cell-based
Conditions: 4-parameter fit; for Emax: 1 h, % activity normalized to Max and Min controls; for EC50: 60 minutes at 37° C.
Method: CHO-K1 cells stably expressing human GPR119 (hGPR119) were prepared by transfection of a GPR119-carrying plasmid using Lipofectamine 2000 (following manufacturer instructions). A stable cell line was established using the limiting dilution method with geneticine selection. Assay-ready frozen (ARF) cells were prepared and used throughout the study.
The assay was performed in a 384-well plate format using the cAMP Gs dynamic assay kit from Cisbio. ARF cells expressing hGPR119 were thawed, washed and then resuspended in cAMP stimulation buffer at a cell density of 1.1×10^6 cells/mL. Cells were plated at a density of ˜10,000 cells/well (9 μL/well). Dose response curves for the tested compounds were prepared in a cAMP stimulation buffer, containing 0.1% Tween 80 at 4 fold the final concentration. The compounds were then transferred to the cell plates using BRAVO (3 μL/well) and the plates were incubated for 60 minutes at 37° C./5% CO2. Detection buffer (10 μL, prepared as described in the cAMP Gs dynamic kit) were added to each well, and the plates were incubated at ambient temperature for 1 hr.
RT-FRET was measured using a ClarioSTAR plate reader, calculating the ratio between emissions at 665 nm and 620 nm (HTRF ratio). The HTRF ratio for positive (Max) and negative (Min) controls were used to normalize HTRF data and generate values for % activity. EC50 and Max activity values were determined using a standard 4-parameter fit.

SMILES | Emax | EC50
O=C(Cc1ccc(OCCCC2CCN(c3ncc(Cl)cn3)CC2)cc1F)N1CC2(CN(C[C@H](O)[C@H](O)[C@H](O)CO)C2)C1 [Example 25, 2-(4-(3-(1-(5-chloropyrimidin-2-yl)piperidin-4-yl)propoxy)-2-fluorophenyl)-1-(6-((2S,3S,4R)-2,3,4,5-tetrahydroxypentyl)-2,6-diazaspiro[3.3]heptan-2-yl)ethan-1-one formate] | 50 to 100% | > 10000 nM
O=C(Cc1ccc(OCCCC2CCN(c3ncc(Cl)cn3)CC2)cc1F)N1CC2(CN(C[C@H](O)[C@@H](O)[C@H](O)[C@H](O)CO)C2)C1 [Example 26, 2-(4-(3-(1-(5-chloropyrimidin-2-yl)piperidin-4-yl)propoxy)-2-fluorophenyl)-1-(6-((2S,3R,4R,5R)-2,3,4,5,6-pentahydroxyhexyl)-2,6-diazaspiro[3.3]heptan-2-yl)ethan-1-one] | 100 to 130% | ≤ 100 nM
O=C(Cc1ccc(OCCCC2CCN(c3ncc(Cl)cn3)CC2)cc1F)N1CCN(C[C@H](O)[C@@H](O)[C@H](O)[C@H](O)CO)CC1 [Example 27, 2-(4-(3-(1-(5-chloropyrimidin-2-yl)piperidin-4-yl)propoxy)-2-fluorophenyl)-1-(4-((2S,3R,4R,5R)-2,3,4,5,6-pentahydroxyhexyl)piperazin-1-yl)ethan-1-one] | 100 to 130% | ≤ 100 nM
O=C(Cc1ccc(OCCCC2CCN(c3ncc(Cl)cn3)CC2)cc1F)N1CCC2(CN(C[C@H](O)[C@H](O)[C@H](O)CO)C2)C1 [Example 28, 2-(4-(3-(1-(5-chloropyrimidin-2-yl)piperidin-4-yl)propoxy)-2-fluorophenyl)-1-(2-((2S,3S,4R)-2,3,4,5-tetrahydroxypentyl)-2,6-diazaspiro[3.4]octan-6-yl)ethan-1-one] | 100 to 130% | ≤ 100 nM
O=C(Cc1ccc(OCCCC2CCN(c3ncc(Cl)cn3)CC2)cc1F)N1CCC2(CN(C[C@H](O)[C@@H](O)[C@H](O)[C@H](O)CO)C2)C1 [Example 29, 2-(4-(3-(1-(5-chloropyrimidin-2-yl)piperidin-4-yl)propoxy)-2-fluorophenyl)-1-(2-((2S,3R,4R,5R)-2,3,4,5,6-pentahydroxyhexyl)-2,6-diazaspiro[3.4]octan-6-yl)ethan-1-one] | 100 to 130% | ≤ 100 nM
O=C(Cc1ccc(OCCCC2CCN(c3ncc(Cl)cn3)CC2)cc1F)N1CCC2(CCN2C[C@H](O)[C@H](O)[C@H](O)CO)C1 (stereo partly drawn) [Example 30, 2-(4-(3-(1-(5-chloropyrimidin-2-yl)piperidin-4-yl)propoxy)-2-fluorophenyl)-1-(1-((2S,3S,4R)-2,3,4,5-tetrahydroxypentyl)-1,6-diazaspiro[3.4]octan-6-yl)ethan-1-one] | 100 to 130% | ≤ 100 nM
O=C(Cc1ccc(OCCCC2CCN(c3ncc(Cl)cn3)CC2)cc1F)N1CCC2(CCN2C[C@H](O)[C@@H](O)[C@H](O)[C@H](O)CO)C1 (stereo partly drawn) [Example 31, 2-(4-(3-(1-(5-chloropyrimidin-2-yl)piperidin-4-yl)propoxy)-2-fluorophenyl)-1-(1-((2S,3R,4R,5R)-2,3,4,5,6-pentahydroxyhexyl)-1,6-diazaspiro[3.4]octan-6-yl)ethan-1-one] | 100 to 130% | ≤ 100 nM
O=C(Cc1ccc(OCCCC2CCN(c3ncc(Cl)cn3)CC2)cc1F)N1CC2(CCN2C[C@H](O)[C@H](O)[C@H](O)CO)C1 [Example 32, 2-(4-(3-(1-(5-chloropyrimidin-2-yl)piperidin-4-yl)propoxy)-2-fluorophenyl)-1-(1-((2S,3S,4R)-2,3,4,5-tetrahydroxypentyl)-1,6-diazaspiro[3.3]heptan-6-yl)ethan-1-one] | 100 to 130% | ≤ 100 nM
O=C(Cc1ccc(OCCCC2CCN(c3ncc(Cl)cn3)CC2)cc1F)N1CC2(CCN2C[C@H](O)[C@@H](O)[C@H](O)[C@H](O)CO)C1 [Example 33, 2-(4-(3-(1-(5-chloropyrimidin-2-yl)piperidin-4-yl)propoxy)-2-fluorophenyl)-1-(1-((2S,3R,4R,5R)-2,3,4,5,6-pentahydroxyhexyl)-1,6-diazaspiro[3.3]heptan-6-yl)ethan-1-one] | 100 to 130% | ≤ 100 nM
O=C(Cc1ccc(OCCCC2CCN(c3ncc(Cl)cn3)CC2)cc1F)N1C[C@@H]2CCN(C[C@H](O)[C@H](O)[C@H](O)CO)[C@@H]2C1 [Example 34, 2-(4-(3-(1-(5-chloropyrimidin-2-yl)piperidin-4-yl)propoxy)-2-fluorophenyl)-1-((3aS,6aS)-1-((2S,3S,4R)-2,3,4,5-tetrahydroxypentyl)hexahydropyrrolo[3,4-b]pyrrol-5(1H)-yl)ethan-1-one] | ≥ 130% | ≤ 100 nM
O=C(Cc1ccc(OCCCC2CCN(c3ncc(Cl)cn3)CC2)cc1F)N1C[C@@H]2CCN(C[C@H](O)[C@@H](O)[C@H](O)[C@H](O)CO)[C@@H]2C1 [Example 35, 2-(4-(3-(1-(5-chloropyrimidin-2-yl)piperidin-4-yl)propoxy)-2-fluorophenyl)-1-((3aS,6aS)-1-((2S,3R,4R,5R)-2,3,4,5,6-pentahydroxyhexyl)hexahydropyrrolo[3,4-b]pyrrol-5(1H)-yl)ethan-1-one] | 100 to 130% | ≤ 100 nM

The remaining lines, values ahead:

Emax | EC50 | SMILES
100 to 130% | 100 to 1000 nM | O=C(CCCCS(=O)(=O)O)N1CCN(C(=O)Cc2ccc(OCCCC3CCN(c4ncc(Cl)cn4)CC3)cc2F)C2CC21 (centres unmarked) [Example 17, 5-(5-(2-(4-(3-(1-(5-chloropyrimidin-2-yl)piperidin-4-yl)propoxy)-2-fluorophenyl)acetyl)-2,5-diazabicyclo[4.1.0]heptan-2-yl)-5-oxopentane-1-sulfonic acid]
100 to 130% | ≤ 100 nM | O=C(Cc1ccc(OCCCC2CCN(c3ncc(Cl)cn3)CC2)cc1F)N1CC2(CCCN2C(=O)CCCCS(=O)(=O)O)C1 [Example 18, 5-(2-(2-(4-(3-(1-(5-chloropyrimidin-2-yl)piperidin-4-yl)propoxy)-2-fluorophenyl)acetyl)-2,5-diazaspiro[3.4]octan-5-yl)-5-oxopentane-1-sulfonic acid]
100 to 130% | ≤ 100 nM | O=C(Cc1ccc(OCCCC2CCN(c3ncc(Cl)cn3)CC2)cc1F)N1CC2(C1)N(C(=O)CCCCS(=O)(=O)O)CC2(F)F [Example 19, 5-(6-(2-(4-(3-(1-(5-chloropyrimidin-2-yl)piperidin-4-yl)propoxy)-2-fluorophenyl)acetyl)-3,3-difluoro-1,6-diazaspiro[3.3]heptan-1-yl)-5-oxopentane-1-sulfonic acid]
100 to 130% | ≤ 100 nM | O=C(Cc1ccc(OCCCC2CCN(c3ncc(Cl)cn3)CC2)cc1F)N1C[C@H]2CCN(C(=O)CCCCS(=O)(=O)O)[C@H]2C1 [Example 20, 5-((3aR,6aR)-5-(2-(4-(3-(1-(5-chloropyrimidin-2-yl)piperidin-4-yl)propoxy)-2-fluorophenyl)acetyl)hexahydropyrrolo[3,4-b]pyrrol-1(2H)-yl)-5-oxopentane-1-sulfonic acid]
100 to 130% | ≤ 100 nM | O=C(Cc1ccc(OCCCC2CCN(c3ncc(Cl)cn3)CC2)cc1F)N1CCC2(CC1)CCN2C(=O)CCCCS(=O)(=O)O [Example 21, 5-(7-(2-(4-(3-(1-(5-chloropyrimidin-2-yl)piperidin-4-yl)propoxy)-2-fluorophenyl)acetyl)-1,7-diazaspiro[3.5]nonan-1-yl)-5-oxopentane-1-sulfonic acid]
100 to 130% | 100 to 1000 nM | O=C(Cc1ccc(OCCCC2CCN(c3ncc(Cl)cn3)CC2)cc1F)N1CCC2(CC1)CN(C(=O)CCCCS(=O)(=O)O)C2 [Example 22, 5-(7-(2-(4-(3-(1-(5-chloropyrimidin-2-yl)piperidin-4-yl)propoxy)-2-fluorophenyl)acetyl)-2,7-diazaspiro[3.5]nonan-2-yl)-5-oxopentane-1-sulfonic acid]
100 to 130% | ≤ 100 nM | O=C(CCCCS(=O)(=O)O)N1CCN(C(=O)Cc2ccc(OCCCC3CCN(c4ncc(Cl)cn4)CC3)cc2F)CC1 [Example 23, 5-(4-(2-(4-(3-(1-(5-chloropyrimidin-2-yl)piperidin-4-yl)propoxy)-2-fluorophenyl)acetyl)piperazin-1-yl)-5-oxopentane-1-sulfonic acid]
100 to 130% | ≤ 100 nM | O=C(CCCCS(=O)(=O)O)N1CCOC2(CCN(C(=O)Cc3ccc(OCCCC4CCN(c5ncc(Cl)cn5)CC4)cc3F)C2)C1 (centres unmarked) [Example 24, 5-(2-(2-(4-(3-(1-(5-chloropyrimidin-2-yl)piperidin-4-yl)propoxy)-2-fluorophenyl)acetyl)-6-oxa-2,9-diazaspiro[4.5]decan-9-yl)-5-oxopentane-1-sulfonic acid]
